The values that follow come from PubChem BioAssay AID1645848.

Values after ≈ are worked out from the molar mass of the structure shown. Bounds are passed on as bounds.

For this data set the following is noted: buffer; pH 7.4; 6.0 h; 150.0 µM.
As to `CC(=O)c1c(C)[nH]c(C(=O)Nc2cccc([S+](=O)([O-])Nc3cccnc3)c2)c1C`, the solubility (kinetic) is more than 61 µg/mL.

The compound `CN(C)C(=O)C1CCN(c2nc(-c3ccc(Br)cc3)cs2)CC1` came in with a kinetic solubility of 1.8 µg/mL (≈ 4.56 µM).

Turning to `COc1cccc(C(=O)Nc2nc(-c3nnn(-c4ccccc4C(F)(F)F)c3C)ns2)c1`, the solubility (kinetic) is 1.03 µg/mL (≈ 2.24 µM).

Regarding `O=C(Nc1ncc(Cc2ccc(C(F)(F)F)cc2)s1)c1ccc(-c2ccccc2)o1`, the kinetic solubility was less than 1 µg/mL.

Regarding `Cc1ccccc1C(C(=O)NC1CCCCC1)N(C(=O)Cn1ccnc1C)c1cccc(F)c1` (centres undefined), the kinetic solubility came to 3.13 µg/mL (≈ 6.76 µM).

In the case of `CCc1ccc(NC(=O)c2[nH]c(C)c(C(C)=O)c2C)cc1S(=O)(=O)Nc1cccc(C#N)c1`, the kinetic solubility stood at 1.67 µg/mL (≈ 3.59 µM).

`O=c1[nH]nc(Sc2ncc([N+](=O)[O-])s2)n1-c1ccc2c(c1)OCCO2` gave a kinetic solubility of 28.7 µg/mL (≈ 75.6 µM).

Consider `CC1=C[C@@H](CN2C(=O)C(C)=C(C)C2=O)[C@H](C(C)C)C[C@H]1Cc1nc2c(C)cccc2[nH]1`, for which the solubility (kinetic) amounted to 3.65 µg/mL (≈ 8.7 µM). Against the preceding compound, the solubility kinetic is about 7.9-fold lower.

`Cc1cnc(-c2ccccc2C(C)C)nc1NCC1CCN(C2COC2)CC1` displayed a solubility (kinetic) of more than 56 µg/mL.

As to `COc1ccc(-n2nc(C3CCCN(C(=O)C4CC4)C3)[nH]c2=O)cc1` (centres undefined), the kinetic solubility is more than 51 µg/mL.

`COc1ccc(C2=Nn3c(nnc3-c3ccncc3)SC2)cc1` gave a kinetic solubility of 9.06 µg/mL (≈ 28 µM).

Compound `COc1ccnc(NC(=S)N2CCN(c3ncc(C(F)(F)F)cc3Cl)CC2)c1` had a solubility (kinetic) of 1.24 µg/mL (≈ 2.86 µM).

As to `Cc1ccc(S(=O)(=O)Nc2cnccc2C(=O)Nc2nc(-c3cccc(C)c3)cs2)cc1`, the kinetic solubility came out at 15.4 µg/mL (≈ 33.1 µM).

Consider `COc1cc(NC(=O)c2nc3ccccc3n(C)c2=O)cc(OC)c1OC`, for which the kinetic solubility is 7.16 µg/mL (≈ 19.4 µM).

With `Cc1cccc(-n2ncc3c2CCCC3NC(=O)c2c(F)ccc(F)c2F)c1C` (centres undefined), the kinetic solubility was 7.25 µg/mL (≈ 18.1 µM).

Regarding `CCCCNc1oc(-c2cccc3ccccc23)nc1C#N`, the kinetic solubility was less than 1 µg/mL.

The compound `O=C(N/N=C/c1ccc(O)c(O)c1)c1cc2ccccc2cc1O` yielded a kinetic solubility of 18.2 µg/mL (≈ 56.5 µM).

Compound `O=C1CCCC2=C1C(c1ccccc1Cl)N=C(Nc1nc3ccccc3o1)N2` (centres undefined) yielded a kinetic solubility of less than 1 µg/mL.

`CN([C@@H](Cc1ccc(O[S+](=O)([O-])c2cccc3cnccc23)cc1)C(=O)N1CCN(C(=O)OCc2ccccc2)CC1)[S+](=O)([O-])c1cccc2cnccc12` showed a kinetic solubility of 1.26 µg/mL (≈ 1.61 µM).

Take `Nc1c(-c2ccccc2)cnc2c(-c3ccccc3)cnn12`: the kinetic solubility is less than 1 µg/mL.

As for `O=C(NC1CCCN(c2cc(-c3ccc(F)cc3)[nH]n2)C1)c1ccc2ncccc2c1` (centres undefined), the kinetic solubility came out at 12.5 µg/mL (≈ 30.2 µM).

For `COc1ccc(-n2nc(C3CCN([S+](=O)([O-])c4cccc(C(F)(F)F)c4)CC3)[nH]c2=O)cc1`, the kinetic solubility is less than 1 µg/mL.

For the compound `COc1ccc(NC(=O)c2cc(-c3ccc[nH]3)n[nH]2)cc1OC`, the solubility (kinetic) is more than 31 µg/mL.

As to `O=C(c1ccccc1)N1CCC(C(=O)N2CCC(N3Cc4ccccc4C3=O)CC2)CC1`, the solubility (kinetic) was more than 43 µg/mL.

In the case of `CC(=O)NCc1ccc(-c2csc(Nc3cc(C)cc(C)c3)n2)o1`, the kinetic solubility is 1.14 µg/mL (≈ 3.33 µM).

The compound `Cc1ccc(NS(=O)(=O)c2ccccc2C(=O)Nc2nc(-c3ccccc3)cs2)cc1` showed a kinetic solubility of less than 1 µg/mL.

Regarding `Cc1cc(C)nc(NC(=S)N2CCN(c3cccc(C(F)(F)F)c3)CC2)c1`, the solubility (kinetic) stood at 0.748 µg/mL (≈ 1.9 µM).

In turn, `CC(=O)N[C@H]1CN(C2CCN(c3ccc(F)cc3C)CC2)C[C@@H]1C1CC1` registered a kinetic solubility of 20.3 µg/mL (≈ 56.4 µM).

Consider `COc1ccc(CCN2CCC(Nc3nc4ccccc4n3Cc3ccc(F)cc3)CC2)cc1`, for which the kinetic solubility worked out at 54.6 µg/mL (≈ 119 µM).

With `COCCNC(=O)c1ccc(Cn2c(=S)[nH]c3cc4c(cc3c2=O)OCO4)cc1`, the kinetic solubility amounted to 6.98 µg/mL (≈ 16.9 µM).

As for `COc1ccc(-c2[nH]nc3ncc(-c4ccc(CO)cc4)nc23)cc1F`, the kinetic solubility was less than 1 µg/mL.

For `COc1cc(C(=S)N2CCN(CCO)CC2)ccc1OCc1ccc(C)cc1`, the kinetic solubility is 35.9 µg/mL (≈ 89.6 µM).

On to `O=C(O)c1ccc(O)c2ncc(N3CCCN(CCc4cccc5ccccc45)CC3)cc12`, for which the kinetic solubility was determined as 21.4 µg/mL (≈ 48.4 µM).

`CCN1CCCC1CNC(=O)c1cc(S(=O)(=O)CC)c(N)cc1OC` (centres undefined) had a kinetic solubility of 36.2 µg/mL (≈ 98.1 µM).

In turn, `CCc1cccc(C)c1Nc1c(-c2ccc(N(C)C)cc2)nc2ncccn12` had a kinetic solubility of 1.88 µg/mL (≈ 5.05 µM).

The compound `Cc1ccccc1-c1nc(NCc2ccc(-c3cccnc3)cc2)c2ccccc2n1` displayed a kinetic solubility of less than 1 µg/mL.

Compound `c1ccc2c(Nc3nccs3)nc(-c3ccncc3)nc2c1` registered a solubility (kinetic) of less than 1 µg/mL.

As for `CCc1cccc(NC(=O)C(Cc2ccccc2)NS(=O)(=O)c2cccs2)c1` (centres undefined), the kinetic solubility is less than 1 µg/mL.

`C[C@@H](O)CNC(C)(C)CC(=O)N[C@@H]1CCc2ccccc2N(Cc2ccc(-c3ccccc3-c3nn[nH]n3)cc2)C1=O`: the solubility (kinetic) was more than 84 µg/mL.

`O=C(c1nc(-c2cccnc2)c2ccccn12)N1CCOCC1`: the kinetic solubility came to 45.2 µg/mL (≈ 147 µM).

Compound `COc1ccc(Cn2c(CCC(=O)Nc3cc(C)cc(C)c3)nc3cccnc32)cc1` gave a solubility (kinetic) of less than 1 µg/mL.

In turn, `O=C(Nc1nc(-c2ccc(Cl)s2)cs1)c1cccs1` showed a solubility (kinetic) of less than 1 µg/mL.

On to `O=C1Nc2ccccc2/C1=C\c1ccc(O)c(F)c1`, for which the solubility (kinetic) was determined as 9.29 µg/mL (≈ 36.4 µM).

`O=C1Nc2ccccc2C12CC2c1cc(Cl)c(O)c(Cl)c1` (centres undefined) showed a solubility (kinetic) of less than 1 µg/mL.

Take `O=[S+]([O-])(Nc1nccs1)c1ccc(NCc2ccc(Cl)c(Cl)c2)cc1`: the kinetic solubility was less than 1 µg/mL.

`Cc1nnc(-c2ccccc2C(C)C)nc1NCc1ccc(-c2cccnc2)cc1` returned a solubility (kinetic) of less than 1 µg/mL.

As to `O=C(Nc1nnc(-c2ccco2)o1)c1ccc(Cl)cc1`, the solubility (kinetic) was found to be 28.2 µg/mL (≈ 97.3 µM).

Take `CCOc1ccccc1C(=O)Nc1cccnc1C(=O)Nc1cccc(S(=O)(=O)C(F)(F)F)c1`: the kinetic solubility was less than 1 µg/mL.

`CCN(CC)S(=O)(=O)c1cccc(C(=O)Nc2ccc(C#N)cc2)c1`: the solubility (kinetic) was determined as 10.2 µg/mL (≈ 28.5 µM).

Turning to `O=[S+]([O-])(Nc1nccs1)c1ccc(NCc2cccc3c2NCC3)cc1`, the solubility (kinetic) was more than 57 µg/mL.

In turn, `Cn1c(CN2CCCC2)nc2cc(NC(=O)COc3ccc(Cl)cc3)ccc21` registered a solubility (kinetic) of more than 59 µg/mL.

Consider `NC(=O)C1CCN(c2nccc(-c3ccc4c(c3)OCCCO4)n2)CC1`, for which the solubility (kinetic) is 44.2 µg/mL (≈ 125 µM).

On to `CCOc1ccc(NC(=O)CC2C(=O)N(c3ccc(F)cc3)C(=O)N2CCc2sccc2C)cc1` (centres undefined), for which the solubility (kinetic) is less than 1 µg/mL.

`O=C(Nc1ccc2oc(-c3cccnc3)nc2c1)c1ccc(-c2ccccc2)o1` yielded a solubility (kinetic) of less than 1 µg/mL.

On to `COCCN1CCNc2nc(COc3ccc(C(C)C)cc3)n(Cc3ccccc3)c2C1=O`, for which the kinetic solubility was less than 1 µg/mL.

As to `Cc1ccccc1N(C)C1CN([S+](=O)([O-])c2cccc(C(F)(F)F)c2)C1`, the kinetic solubility was 1.42 µg/mL (≈ 3.7 µM).

`COc1ccc(C)cc1-n1nnnc1Sc1ncnc2scc(-c3ccc(Br)cc3)c12` had a solubility (kinetic) of 2.38 µg/mL (≈ 4.65 µM).

`Oc1ccc(-c2nc(C3CC3)nc3c2CCN(CC2CCCCC2)CC3)cc1` showed a solubility (kinetic) of 11.3 µg/mL (≈ 29.9 µM).

Take `N=c1c2ccccc2nnn1-c1ccc(C(F)(F)F)cc1`: the solubility (kinetic) was less than 1 µg/mL.

`Cn1cncc1[C@@](N)(c1ccc(Cl)cc1)c1ccc2c(c1)c(-c1cccc(Cl)c1)cc(=O)n2C` gave a kinetic solubility of less than 1 µg/mL.

For the compound `O=C1CCCC2=C1C(c1ccccc1C(F)(F)F)N=C(Nc1nc3ccccc3o1)N2` (centres undefined), the kinetic solubility is less than 1 µg/mL.

`CC(C)c1ccccc1-c1ncc(F)c(NC(C)(C)c2ccc(-c3cccnc3)cc2)n1` showed a solubility (kinetic) of less than 1 µg/mL.

With `O=C(Cc1ccc(-c2csc(Nc3ccc(F)cc3)n2)s1)N1CCOCC1`, the kinetic solubility stood at 2.31 µg/mL (≈ 5.73 µM).

`CC(C)(C)n1cnc2cc(C(=O)N3CCCCC3)ccc21` had a solubility (kinetic) of more than 42 µg/mL.

Compound `COc1cccc(CNc2ccc(S(=O)(=O)Nc3nccs3)cc2)c1N` had a solubility (kinetic) of more than 58 µg/mL.

For `N#Cc1ccc(-c2csc(N3CCC(C(N)=O)CC3)n2)cc1`, the kinetic solubility was 4.34 µg/mL (≈ 13.9 µM).

`Cn1cnc(-c2nccc3c(=O)[nH]c(OCCCC(F)(F)F)nc23)c1` came in with a kinetic solubility of more than 52 µg/mL.

`CC(C)c1ccccc1-c1ncc(F)c(NC(C)(C)c2ccc(-n3ccnn3)cc2)n1` returned a kinetic solubility of 1.14 µg/mL (≈ 2.74 µM).

In the case of `Cc1cn(CCN2CCN(c3ccccc3-c3cc(C#N)cc(C(=O)NCCCN4CCCC4)c3)CC2)c2ccccc12`, the kinetic solubility turned out to be 14.6 µg/mL (≈ 25.4 µM).

`O=C1CCCC2=C1C(C1CCCCC1Cl)N=C(NC1NC3CCCCC3S1)N2` (centres undefined) registered a solubility (kinetic) of less than 1 µg/mL.

Consider `Cc1cccc(-n2cnc3cc(C(=O)N4CCCC(C(F)(F)F)C4)ccc32)c1` (centres undefined), for which the kinetic solubility is 45.3 µg/mL (≈ 117 µM).

Compound `Fc1ccc(Cl)cc1-c1nc(Nc2ccncc2)c2nccnc2n1` had a solubility (kinetic) of 1.6 µg/mL (≈ 4.54 µM).

For `Cc1noc(C)c1-c1cc(-c2ccc3c(c2)C(=O)NC3)cn2cncc12`, the kinetic solubility is more than 76 µg/mL.

`Nc1nc2c(s1)C(c1ccccc1)CC(=O)N2` (centres undefined) registered a kinetic solubility of 26 µg/mL (≈ 106 µM).

On to `O=C1CCCC2=C1C1(CCCC1)N=C(Nc1nc3cc(Br)ccc3o1)N2`, for which the kinetic solubility is less than 1 µg/mL.

`O=C(c1cnc(N2CCCCC2)c2ccccc12)N1CCN(c2ccccn2)CC1` yielded a kinetic solubility of more than 59 µg/mL.

As to `CCc1ccc(C2Sc3ccccc3NC3=C2C(=O)c2ccccc23)cc1` (centres undefined), the solubility (kinetic) was less than 1 µg/mL.

In turn, `COc1ccc(CN2CCc3nc(N4CCN(c5ccc(F)cc5)CC4)ncc3C2)c(OC)c1OC` came in with a kinetic solubility of less than 1 µg/mL.

In turn, `FC(F)(F)c1cccc(Sc2nc(-c3ccccc3)nnc2C(F)(F)F)c1` returned a solubility (kinetic) of less than 1 µg/mL.

`CC(C)Oc1cccc(-c2ccnc(N3CCC(C(N)=O)CC3)n2)c1` displayed a solubility (kinetic) of 8.28 µg/mL (≈ 24.3 µM).

On to `Cc1ccnc(NC(=S)N2CCN(c3cc(Cl)cc(Cl)c3)CC2)c1`, for which the kinetic solubility is 2.32 µg/mL (≈ 6.09 µM).

Turning to `COc1ccc(-n2nc(C)c([C@@H]3C=C[C@@H](NCc4ccc(F)cc4)C3)c2C)cc1`, the solubility (kinetic) was 42 µg/mL (≈ 107 µM).

With `OCc1ccc(-c2nn(Cc3ccccc3)c3ccccc23)o1`, the kinetic solubility was 2.72 µg/mL (≈ 8.94 µM).

`N#Cc1cnc(NS(=O)(=O)c2ccc(NC(=O)Cc3ccc(F)c(Cl)c3)cc2)s1` came in with a kinetic solubility of more than 67 µg/mL.

For the compound `O=C(Nc1ncc([S+](=O)([O-])N2CCOCC2)s1)c1cccc(Br)c1`, the kinetic solubility was 2.94 µg/mL (≈ 6.79 µM).

Turning to `O=C1CCCC2=C1C1(CCSC1)N=C(Nc1nc3ccccc3o1)N2` (centres undefined), the kinetic solubility is less than 1 µg/mL.

On to `CN(C)c1cccc(-c2nnc(N3CCC(C(N)=O)CC3)s2)c1`, for which the solubility (kinetic) was more than 49 µg/mL.

In the case of `Cc1ccnc(NC(=S)N2CCN(c3ccc(Cl)cc3Cl)CC2)c1`, the solubility (kinetic) came out at 2.28 µg/mL (≈ 5.97 µM).

In turn, `O=C1Nc2ccccc2/C1=C\c1ccc(O)c(Cl)c1` returned a kinetic solubility of 22.8 µg/mL (≈ 83.9 µM). This solubility kinetic is about 10-fold higher than that of the compound before.

For orientation: solubility (kinetic) means solubility judged after dilution from a stock solution rather than from solid.
